Data reported in patent US11517598B2 (priority 2016, dated 2022).

Test system: cytokine, chemokine and IFN stimulated gene expression in 786-0 cells
Type: cell-based, human

## Sodium orthovanadate
  CXCL9 mRNA up-regulation: more than 100,000 fold
  IFNβ mRNA up-regulation: more than 10 fold
  IFNγ expression: not up-regulated at any time-point post infection under any condition tested
  MX2 and IFITM1 mRNA: robustly downregulated as early as 8 h post-infection
  expression of proinflammatory cytokines (CCL8, CCL3, IL6, TNF, IFNβ, CCL5) and type II IFN induced genes (CXCL9, CXCL10, CXCL11): increased expression of a number of proinflammatory cytokines
  genes typically induced by Type I IFN: either unaffected or decreased
